Consider one compound from paper PMC10256842, “Empowering drug off-target discovery with metabolic and structural analysis” (Nature Communications, 2023).

For the test, the target named is T1, HPPK (6-Hydroxymethyl-7,8-dihydropterin pyrophosphokinase) (Escherichia coli, UniProt P26281).
T1 construct: gene folK; recombinant HPPK from pET28A, Ni-NTA purified
T1 sequence (P26281 2-159): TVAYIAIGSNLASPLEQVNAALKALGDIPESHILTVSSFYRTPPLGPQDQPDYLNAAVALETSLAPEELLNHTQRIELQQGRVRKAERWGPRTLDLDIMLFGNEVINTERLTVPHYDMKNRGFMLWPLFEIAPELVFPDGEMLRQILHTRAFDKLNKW
The test can be described thus: KinaseGlo luminescence ATP-depletion assay; substrate starts the reaction and relieves CD15-3 inhibition. It counts as biochemical.

Each structure is given as a SMILES string.

On to `Nc1nc2c(c(=O)[nH]1)N=C(CO)CN2` [6-Hydroxymethyl-7,8-dihydropterin], for which the “KinaseGlo luminescence ATP-depletion assay; substrate starts the reaction and re” value is reported as “HPPK reaction was initiated with the introduction of the substrate, 6-Hydroxymethyl-7,8-dihydropterin in the assay buffer”.
